Reference: ChEMBL document CHEMBL1208763, “Discovery of potent, selective, and orally bioavailable 3H-spiro[isobenzofuran-1,4'-piperidine] based melanocortin subtype-4 receptor agonists” (Bioorg Med Chem Lett, 2010)

Assay: in vivo
Conditions: Sprague-Dawley, rat, po, 4 mg/kg

| Compound | bioavailability [%] |
| --- | --- |
| CC(C)(C#N)[C@H]1OC2(CCN(C(=O)[C@@H]3CN(C4CCOCC4)C[C@H]3c3ccc(F)cc3F)CC2)c2cc(F)c(Cl)cc21 | 23 |
| CC(=O)NC(C)(C)[C@H]1OC2(CCN(C(=O)[C@@H]3CN(C4CCOCC4)C[C@H]3c3ccc(F)cc3F)CC2)c2cc(Cl)c(C)cc21 | 26 |
